Converted amounts (≈) assume the structure as drawn. Numbered stars: 1 amine (or outer) side, 2 acyl side, 3 side chain; on linkers, the order of the positions; unused ones are H or OH. Square brackets hold non-standard residues; d marks the D form. Peptide text beside a SMILES is read from it. X1 = CC(C)[C@H](C)N(CC(=O)[*:2])[*:1]; Nspe = C[C@H](NCC(=O)O)c1ccccc1; Nlys = NCCCCNCC(=O)O
Tests used:
NIH 3T3 cells = test: Metabolic activity, MTS assay; format: cell-based, mouse
Description: NIH 3T3 mouse fibroblast cells were cultured in complete Dulbecco’s Modified Eagle’s Media. A peptoid solution plate (100 µL per well) was prepared by serial dilution of aqueous peptoid stock solutions in Hank’s balanced salt solution. A day-old cell monolayer was washed thoroughly with Hank’s balanced salt solution and replenished with 100 µL Hank’s balanced salt solution per well. Peptoid solutions were transferred onto the day-old cell monolayers, which contained approximately 5000 cells per well. […] The average of six replicate trials is reported.

erythrocytes = test: Hemolytic activity (HD10/HD50); format: cell-based
From the text: Table 1 Characteristics of antimicrobial peptoids, screened for activity against B. subtilis and E. coli bacterial strains. | column: HD10 / HD50

P. maltophilia ATCC13637 = test: microbe, parasite or virus in culture; conditions: ATCC13637
Description: (§1) The MICs of test agents were measured using a modified broth micro-dilution method in Difco Mueller Hinton medium, on a panel of bacterial pathogens that were both susceptible and resistant to common antibiotics (S1 File). Briefly, serial dilutions were performed in 0.01% acetic acid containing 0.2% bovine serum albumin at 10-fold the desired final concentration. Ten μL of the 10-fold concentrated test reagents were added to each well of a 96-well polypropylene microtitre plate containing 90 μL of Mueller Hinton media per well. Bacteria were added to the plate from an overnight culture at a final concentration of 2–7 x 10^5 CFU/mL and incubated overnight at 37°C. The MIC is defined as the concentration at which no growth was observed.
(§2) Screening of peptoid antimicrobial activity against a panel of multidrug resistant superbugs was done according to the protocol described in the manuscript. The bacterial strains used in this panel included; P. aeruginosa PAO1 strain H103 [1], P. maltophilia ATCC#13637, S. aureus ATCC#25923 [1], E. faecalis ATCC#29212 [2], and E. cloacae 218R, constitutively expressing Class C chromosomal β-lactamase, were from the Hancock lab strains collection. An MRSA clinical isolate was kindly provided by Anthony Chow (Vancouver General Hospital, Vancouver, Canada). Two Klebsiella pneumoniae and two E. coli clinical isolates expressing extended spectrum β-lactamases (ESBL) were kindly provided by George Zhanel (Health Sciences Centre, Winnipeg, Canada). Vancomycin-resistant clinical isolates of Enterococcus faecalis and E. faecium were obtained from Ana M. Paccagnella (BC Centre for Disease Control, Vancouver, Canada). Three clinical isolates (#9, #198 and #213) of multi-drug resistant P. aeruginosa, were kindly provided by Carlos Kiffer (University of São Paulo, Brazil). […] Three P. aeruginosa clinical isolates of the Liverpool epidemic strain (LES) (H1027, H1030 and LES400) were all kindly provided by Craig Winstanley (University of Liverpool, UK). […] All tested bacterial strains were categorized as biohazard level 2 pathogens.

E. coli 63103 (ESBL) = test: microbe, parasite or virus in culture; conditions: 63103 (ESBL)
Description: as §1, §2

[1] = system: P. aeruginosa H1030 (MDR); test: microbe, parasite or virus in culture; conditions: P. aeruginosa H1030 (MDR)
Description: as §1, §2

P. aeruginosa 9 (MDR) = test: microbe, parasite or virus in culture; conditions: 9 (MDR)
Description: as §1, §2

[2] = system: P. aeruginosa H1027 (MDR); test: microbe, parasite or virus in culture; conditions: H1027 (MDR)
Description: as §1, §2

E. faecium mic80 (VRE) = test: microbe, parasite or virus in culture; conditions: mic80 (VRE)
Description: as §1, §2

P. aeruginosa 213 (MDR) = test: microbe, parasite or virus in culture; conditions: 213 (MDR)
Description: as §1, §2

[3] = system: P. aeruginosa H103 (wild type); test: microbe, parasite or virus in culture; conditions: H103 (wild type)
Description: as §1, §2

[4] = system: K. pneumonia 61962 (ESBL); test: microbe, parasite or virus in culture
Description: as §1, §2

P. aeruginosa 198 (MDR) = test: microbe, parasite or virus in culture; conditions: 198 (MDR)
Description: as §1, §2

[5] = system: P. aeruginosa LES400 (MDR); test: microbe, parasite or virus in culture; conditions: LES400 (MDR)
Description: as §1, §2

S. aureus C623 (MRSA) = test: microbe, parasite or virus in culture; conditions: C623
Description: as §1, §2

E. faecalis W61950 (VRE) = test: microbe, parasite or virus in culture; conditions: W61950 (VRE)
Description: as §1, §2

E. coli 64771 (ESBL) = test: microbe, parasite or virus in culture; conditions: 64771 (ESBL)
Description: as §1, §2

E. faecalis F43559 (VRE) = test: microbe, parasite or virus in culture; conditions: F43559 (VRE)
Description: as §1, §2

E. faecium T62764 (VRE) = test: microbe, parasite or virus in culture; conditions: T62764 (VRE)
Description: as §1, §2

S. aureus ATCC25923 = test: microbe, parasite or virus in culture; conditions: ATCC25923
Description: as §1, §2

E. faecalis ATCC29212 = test: microbe, parasite or virus in culture; conditions: ATCC29212
Description: as §1, §2

[6] = system: E. cloacae 218R Class C β-lactamase; test: microbe, parasite or virus in culture; conditions: 218R Class C β-lactamase
Description: as §1, §2

[7] = system: K. pneumonia 63575 (ESBL); test: microbe, parasite or virus in culture
Description: as §1, §2

E. coli ATCC 35218 = format: cell-based
Description: MICs against B. subtilis and E. coli screening bacterial strains were determined using serial dilution in 96-well microtiter plates in accordance with CLSI M7-A6 protocols. Briefly, peptoid solution in cation-adjusted Mueller-Hinton broth was prepared by 2:1 serial dilution with a total volume of 50 µL per well. In experimental wells, 50 µL of bacterial inoculums (1 x 10^6 CFU/mL) were added to the peptoid solutions. Positive controls consisted of 50 µL inoculums added to 50 µL cation-adjusted Mueller-Hinton broth containing no peptoid, while negative controls contained only cation-adjusted Mueller-Hinton broth. […] Experiments were reproducible among three independent replicates, each consisting of two parallel trials.

Row | SMILES | ID50 (inhibitory dose, metabolic activity) (NIH 3T3 cells) | HD10 (hemolytic activity) (erythrocytes) | HD50 (hemolytic activity) (erythrocytes) | MIC (P. maltophilia ATCC13637) | MIC (E. coli 63103 (ESBL)) | MIC [1] | MIC (P. aeruginosa 9 (MDR)) | MIC [2] | MIC (E. faecium mic80 (VRE)) | MIC (P. aeruginosa 213 (MDR)) | MIC [3] | MIC [4] | MIC (P. aeruginosa 198 (MDR)) | MIC [5] | MIC (S. aureus C623 (MRSA)) | MIC (E. faecalis W61950 (VRE)) | MIC (E. coli 64771 (ESBL)) | MIC (E. faecalis F43559 (VRE)) | MIC (E. faecium T62764 (VRE)) | MIC (S. aureus ATCC25923) | further results
1 | CC(C)[C@H](C)N(CC(=O)N(CCCCN)CC(=O)N(CC(=O)N(CC(=O)N(CCCCN)CC(=O)N(CC(=O)N(CC(=O)N(CCCCN)CC(=O)N(CC(=O)N(CC(N)=O)[C@@H](C)c1ccccc1)[C@@H](C)c1ccccc1)[C@@H](C)C(C)C)[C@@H](C)C(C)C)[C@@H](C)c1ccccc1)[C@@H](C)c1ccccc1)C(=O)CN(C(=O)CNCCCCN)[C@@H](C)C(C)C [1-Nsdp2,3,8,9, H-(NLys-Nsdp-Nsdp-NLys-Nspe-Nspe)2-NH2] (H-[Nlys][X1][X1][Nlys][Nspe][Nspe][Nlys][X1][X1][Nlys][Nspe][Nspe]-NH2) | 19 µM | 77 | > 200 | 1 µg/mL (≈ 0.594 µM) | 16 µg/mL (≈ 9.51 µM) | 8 µg/mL (≈ 4.75 µM) | 256 µg/mL (≈ 152 µM) | 2 µg/mL (≈ 1.19 µM) | 4 µg/mL (≈ 2.38 µM) | 8 µg/mL (≈ 4.75 µM) | 8 µg/mL (≈ 4.75 µM) | 32 µg/mL (≈ 19 µM) | 32 µg/mL (≈ 19 µM) | 8 µg/mL (≈ 4.75 µM) | 4 µg/mL (≈ 2.38 µM) | 16 µg/mL (≈ 9.51 µM) | 8 µg/mL (≈ 4.75 µM) | 16 µg/mL (≈ 9.51 µM) | 1 µg/mL (≈ 0.594 µM) | 4 µg/mL (≈ 2.38 µM) | MIC (E. faecalis ATCC29212): 4 µg/mL (≈ 2.38 µM); MIC [6]: 8 µg/mL (≈ 4.75 µM); MIC [7]: 32 µg/mL (≈ 19 µM); MIC E. coli (E. coli ATCC 35218): 12.5 µM (≈ 21 µg/mL)
2 | C[C@@H](c1ccccc1)N(CC(N)=O)C(=O)CN(Cc1ccccc1)C(=O)CN(CCCCN)C(=O)CN(Cc1ccccc1)C(=O)CN(Cc1ccccc1)C(=O)CN(CCCCN)C(=O)CN(Cc1ccccc1)C(=O)CN(Cc1ccccc1)C(=O)CN(CCCCN)C(=O)CN(Cc1ccccc1)C(=O)CN(Cc1ccccc1)C(=O)CNCCCCN [Peptoid 1ach-Nspe12, H-(NLys-Npm-Npm)3-(NLys-Npm-Nspe)-NH2] | 15 µM | 164 | > 200 | 1 µg/mL (≈ 0.581 µM) | 16 µg/mL (≈ 9.3 µM) | 32 µg/mL (≈ 18.6 µM) | 64 µg/mL (≈ 37.2 µM) | 1 µg/mL (≈ 0.581 µM) | 4 µg/mL (≈ 2.32 µM) | 4 µg/mL (≈ 2.32 µM) | 4 µg/mL (≈ 2.32 µM) | 128 µg/mL (≈ 74.4 µM) | 8 µg/mL (≈ 4.65 µM) | 4 µg/mL (≈ 2.32 µM) | 8 µg/mL (≈ 4.65 µM) | 16 µg/mL (≈ 9.3 µM) | 4 µg/mL (≈ 2.32 µM) | 16 µg/mL (≈ 9.3 µM) | 1 µg/mL (≈ 0.581 µM) | 4 µg/mL (≈ 2.32 µM) | MIC (E. faecalis ATCC29212): 8 µg/mL (≈ 4.65 µM); MIC [6]: 16 µg/mL (≈ 9.3 µM); MIC [7]: 32 µg/mL (≈ 18.6 µM); MIC E. coli (E. coli ATCC 35218): 6.3 µM (≈ 10.8 µg/mL)
3 | C[C@@H](c1ccccc1)N(CC(N)=O)C(=O)CN(CCCCN)C(=O)CN(CCCCN)C(=O)CN(C(=O)CN(C(=O)CN(CCCCN)C(=O)CN(C(=O)CN(CCCCN)C(=O)CN(CCCCN)C(=O)CN(C(=O)CN(C(=O)CNCCCCN)[C@@H](C)c1ccccc1)[C@@H](C)c1ccccc1)[C@@H](C)c1ccccc1)[C@@H](C)c1ccccc1)[C@@H](C)c1ccccc1 [1-NLys5,11, H-(NLys-Nspe-Nspe-NLys-NLys-Nspe)2-NH2] (H-[Nlys][Nspe][Nspe][Nlys][Nlys][Nspe][Nlys][Nspe][Nspe][Nlys][Nlys][Nspe]-NH2) | 85 µM | >100 / >100 | >100 / >100 | 0.5 µg/mL (≈ 0.285 µM) | 128 µg/mL (≈ 73 µM) | 64 µg/mL (≈ 36.5 µM) | 64 µg/mL (≈ 36.5 µM) | 0.13 µg/mL (≈ 0.0741 µM) | 16 µg/mL (≈ 9.13 µM) | 8 µg/mL (≈ 4.56 µM) | 2 µg/mL (≈ 1.14 µM) | 256 µg/mL (≈ 146 µM) | 8 µg/mL (≈ 4.56 µM) | 8 µg/mL (≈ 4.56 µM) | 64 µg/mL (≈ 36.5 µM) | 256 µg/mL (≈ 146 µM) | 32 µg/mL (≈ 18.3 µM) | 256 µg/mL (≈ 146 µM) | 8 µg/mL (≈ 4.56 µM) | 64 µg/mL (≈ 36.5 µM) | MIC (E. faecalis ATCC29212): 256 µg/mL (≈ 146 µM); MIC [6]: 32 µg/mL (≈ 18.3 µM); MIC [7]: 128 µg/mL (≈ 73 µM); MIC E. coli (E. coli ATCC 35218): 50 µM (≈ 87.7 µg/mL)
4 | C[C@@H](c1ccccc1)N(CC(N)=O)C(=O)CN(C(=O)CN(CCCCN)C(=O)CN(C(=O)CN(C(=O)CN(CCCCN)C(=O)[C@@H]1CCCN1C(=O)CN(C(=O)CN(CCCCN)C(=O)CN(C(=O)CN(C(=O)CNCCCCN)[C@@H](C)c1ccccc1)[C@@H](C)c1ccccc1)[C@@H](C)c1ccccc1)[C@@H](C)c1ccccc1)[C@@H](C)c1ccccc1)[C@@H](C)c1ccccc1 [Peptoid 1-Pro6, H-NLys-Nspe2-NLys-Nspe-L-Pro-(NLys-Nspe2)2-NH2] (H-[Nlys][Nspe][Nspe][Nlys][Nspe]P[Nlys][Nspe][Nspe][Nlys][Nspe][Nspe]-NH2) | 18 µM | 83 | > 200 | 2 µg/mL (≈ 1.14 µM) | 16 µg/mL (≈ 9.12 µM) | 16 µg/mL (≈ 9.12 µM) | 256 µg/mL (≈ 146 µM) | 4 µg/mL (≈ 2.28 µM) | 8 µg/mL (≈ 4.56 µM) | 16 µg/mL (≈ 9.12 µM) | 8 µg/mL (≈ 4.56 µM) | 64 µg/mL (≈ 36.5 µM) | 16 µg/mL (≈ 9.12 µM) | 8 µg/mL (≈ 4.56 µM) | 8 µg/mL (≈ 4.56 µM) | 32 µg/mL (≈ 18.2 µM) | 8 µg/mL (≈ 4.56 µM) | 8 µg/mL (≈ 4.56 µM) | 1 µg/mL (≈ 0.57 µM) | 4 µg/mL (≈ 2.28 µM) | MIC (E. faecalis ATCC29212): 8 µg/mL (≈ 4.56 µM); MIC [6]: 16 µg/mL (≈ 9.12 µM); MIC [7]: 32 µg/mL (≈ 18.2 µM); MIC E. coli (E. coli ATCC 35218): 12.5 µM (≈ 21.9 µg/mL)

Reference: PMC4744035, “In Vivo, In Vitro, and In Silico Characterization of Peptoids as Antimicrobial Agents” (PLoS ONE, 2016)
